What was measured:
Assay in all cases: radiometric filter-binding kinase assay, Kinase HotSpot
Conditions in all cases: compound 0.5 µM; ATP 10 µM
MAPKAPK3 (human) = MAPKAPK3 (human) (UniProt Q16644)
ACVR1 (human) = ACVR1 (human) (UniProt Q04771)
NEK4 (human) = NEK4 (human) (UniProt P51957)
GRK7 (human) = GRK7 (human) (UniProt Q8WTQ7)
NUAK1 (human) = NUAK1 (human) (UniProt O60285)
ERBB4 (human) = ERBB4 (human) (UniProt Q15303)
NEK6 (human) = NEK6 (human) (UniProt Q9HC98)
CSF1R (human) = CSF1R (human) (UniProt P07333)
GSK3B (human) = GSK3B (human) (UniProt P49841)
NEK3 (human) = NEK3 (human) (UniProt P51956)
MAP4K2 (human) = MAP4K2 (human) (UniProt Q12851)
PDGFRA (human) = PDGFRA (human) (UniProt P16234)
PRKCB1 (human) = PRKCB1 (human) (UniProt P05771)
TTK (human) = TTK (human) (UniProt P33981)
PRKCA (human) = PRKCA (human) (UniProt P17252)
PRKCZ (human) = PRKCZ (human) (UniProt Q05513)
PRKG2 (human) = PRKG2 (human) (UniProt Q13237)
DYRK1B (human) = DYRK1B (human) (UniProt Q9Y463)
CDK6 CCND1 (human) = CDK6 CCND1 (human) (UniProt Q00534+P24385)
CDK9 CCNK (human) = CDK9 CCNK (human) (UniProt O75909+P50750)
LRRK2 (human) = LRRK2 (human) (UniProt Q5S007)
MAP3K5 (human) = MAP3K5 (human) (UniProt Q99683)
CDK3 CCNE1 (human) = CDK3 CCNE1 (human) (UniProt Q00526+P24864)
FGFR4 (human) = FGFR4 (human) (UniProt P22455)
CHEK2 (human) = CHEK2 (human) (UniProt O96017)
PHKG2 (human) = PHKG2 (human) (UniProt P15735)
ADRBK1 (human) = ADRBK1 (human) (UniProt P25098)
DYRK4 (human) = DYRK4 (human) (UniProt Q9NR20)
NEK7 (human) = NEK7 (human) (UniProt Q8TDX7)
SRMS (human) = SRMS (human) (UniProt Q9H3Y6)
[1] = test system: PRKCQ (human), Q04759 [P330L]
WNK3 (human) = WNK3 (human) (UniProt Q9BYP7)
TBK1 (human) = TBK1 (human) (UniProt Q9UHD2)
MAP3K9 (human) = MAP3K9 (human) (UniProt P80192)
PTK6 (human) = PTK6 (human) (UniProt Q13882)
EPHA8 (human) = EPHA8 (human) (UniProt P29322)
ADRBK2 (human) = ADRBK2 (human) (UniProt P35626)
PLK1 (human) = PLK1 (human) (UniProt P53350)
CDK2 CCNE1 (human) = CDK2 CCNE1 (human) (UniProt P24941+P24864)
TGFBR1 (human) = TGFBR1 (human) (UniProt P36897)
CAMK2G (human) = CAMK2G (human) (UniProt Q13555)
MAPK10 (human) = MAPK10 (human) (UniProt P53779)

Chain of MAP4K2 (human) (Q12851 whole entry, looked up): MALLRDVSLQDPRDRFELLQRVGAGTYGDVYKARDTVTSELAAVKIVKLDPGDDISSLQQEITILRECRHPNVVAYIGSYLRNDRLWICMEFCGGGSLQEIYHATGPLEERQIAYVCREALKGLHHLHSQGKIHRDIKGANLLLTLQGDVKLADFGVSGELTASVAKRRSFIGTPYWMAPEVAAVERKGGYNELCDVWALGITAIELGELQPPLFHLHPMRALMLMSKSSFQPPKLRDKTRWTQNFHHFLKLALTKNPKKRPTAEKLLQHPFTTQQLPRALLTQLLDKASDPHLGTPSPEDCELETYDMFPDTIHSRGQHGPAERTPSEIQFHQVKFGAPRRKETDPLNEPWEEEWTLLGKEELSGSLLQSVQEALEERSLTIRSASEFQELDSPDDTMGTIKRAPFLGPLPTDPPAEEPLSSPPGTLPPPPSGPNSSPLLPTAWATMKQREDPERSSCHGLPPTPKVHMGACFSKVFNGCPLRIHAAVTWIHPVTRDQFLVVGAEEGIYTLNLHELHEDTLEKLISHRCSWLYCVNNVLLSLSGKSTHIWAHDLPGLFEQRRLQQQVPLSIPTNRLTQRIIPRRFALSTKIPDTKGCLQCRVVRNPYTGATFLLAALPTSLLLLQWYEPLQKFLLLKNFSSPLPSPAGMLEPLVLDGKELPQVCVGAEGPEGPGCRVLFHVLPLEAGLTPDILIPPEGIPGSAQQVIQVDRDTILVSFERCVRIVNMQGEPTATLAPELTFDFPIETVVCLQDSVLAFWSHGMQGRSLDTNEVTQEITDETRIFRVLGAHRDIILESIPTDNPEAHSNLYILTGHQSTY
Chain of DYRK1B (human) (Q9Y463 whole entry, looked up): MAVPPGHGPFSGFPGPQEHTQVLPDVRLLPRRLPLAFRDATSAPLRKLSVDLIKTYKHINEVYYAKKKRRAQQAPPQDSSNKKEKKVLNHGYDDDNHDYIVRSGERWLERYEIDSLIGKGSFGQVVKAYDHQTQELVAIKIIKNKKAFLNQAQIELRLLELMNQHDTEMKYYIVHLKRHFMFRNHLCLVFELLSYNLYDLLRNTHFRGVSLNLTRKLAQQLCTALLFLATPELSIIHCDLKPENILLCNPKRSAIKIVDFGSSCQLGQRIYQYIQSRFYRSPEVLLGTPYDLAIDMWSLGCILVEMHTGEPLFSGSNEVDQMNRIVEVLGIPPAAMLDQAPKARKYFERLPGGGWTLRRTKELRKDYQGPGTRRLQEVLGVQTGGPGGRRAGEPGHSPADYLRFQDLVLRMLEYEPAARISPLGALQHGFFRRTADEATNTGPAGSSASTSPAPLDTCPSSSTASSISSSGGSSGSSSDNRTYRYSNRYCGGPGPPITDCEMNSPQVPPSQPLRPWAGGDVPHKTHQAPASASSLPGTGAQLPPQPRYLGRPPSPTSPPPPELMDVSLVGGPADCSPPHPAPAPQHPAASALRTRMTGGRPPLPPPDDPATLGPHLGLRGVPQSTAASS
Chain of PHKG2 (human) (P15735 whole entry, looked up): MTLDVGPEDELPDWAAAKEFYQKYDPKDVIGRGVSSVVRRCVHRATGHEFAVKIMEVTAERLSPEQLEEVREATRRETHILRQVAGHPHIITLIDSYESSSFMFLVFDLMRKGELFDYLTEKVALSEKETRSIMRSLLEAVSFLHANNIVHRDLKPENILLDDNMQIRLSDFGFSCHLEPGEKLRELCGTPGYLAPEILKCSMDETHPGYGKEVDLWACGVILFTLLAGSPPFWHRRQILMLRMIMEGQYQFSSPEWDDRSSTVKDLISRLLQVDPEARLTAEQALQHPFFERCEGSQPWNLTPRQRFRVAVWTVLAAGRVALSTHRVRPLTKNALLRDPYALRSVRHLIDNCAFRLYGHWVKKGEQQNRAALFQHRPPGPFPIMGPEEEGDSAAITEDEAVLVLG
Chain of LRRK2 (human) (Q5S007 whole entry, looked up): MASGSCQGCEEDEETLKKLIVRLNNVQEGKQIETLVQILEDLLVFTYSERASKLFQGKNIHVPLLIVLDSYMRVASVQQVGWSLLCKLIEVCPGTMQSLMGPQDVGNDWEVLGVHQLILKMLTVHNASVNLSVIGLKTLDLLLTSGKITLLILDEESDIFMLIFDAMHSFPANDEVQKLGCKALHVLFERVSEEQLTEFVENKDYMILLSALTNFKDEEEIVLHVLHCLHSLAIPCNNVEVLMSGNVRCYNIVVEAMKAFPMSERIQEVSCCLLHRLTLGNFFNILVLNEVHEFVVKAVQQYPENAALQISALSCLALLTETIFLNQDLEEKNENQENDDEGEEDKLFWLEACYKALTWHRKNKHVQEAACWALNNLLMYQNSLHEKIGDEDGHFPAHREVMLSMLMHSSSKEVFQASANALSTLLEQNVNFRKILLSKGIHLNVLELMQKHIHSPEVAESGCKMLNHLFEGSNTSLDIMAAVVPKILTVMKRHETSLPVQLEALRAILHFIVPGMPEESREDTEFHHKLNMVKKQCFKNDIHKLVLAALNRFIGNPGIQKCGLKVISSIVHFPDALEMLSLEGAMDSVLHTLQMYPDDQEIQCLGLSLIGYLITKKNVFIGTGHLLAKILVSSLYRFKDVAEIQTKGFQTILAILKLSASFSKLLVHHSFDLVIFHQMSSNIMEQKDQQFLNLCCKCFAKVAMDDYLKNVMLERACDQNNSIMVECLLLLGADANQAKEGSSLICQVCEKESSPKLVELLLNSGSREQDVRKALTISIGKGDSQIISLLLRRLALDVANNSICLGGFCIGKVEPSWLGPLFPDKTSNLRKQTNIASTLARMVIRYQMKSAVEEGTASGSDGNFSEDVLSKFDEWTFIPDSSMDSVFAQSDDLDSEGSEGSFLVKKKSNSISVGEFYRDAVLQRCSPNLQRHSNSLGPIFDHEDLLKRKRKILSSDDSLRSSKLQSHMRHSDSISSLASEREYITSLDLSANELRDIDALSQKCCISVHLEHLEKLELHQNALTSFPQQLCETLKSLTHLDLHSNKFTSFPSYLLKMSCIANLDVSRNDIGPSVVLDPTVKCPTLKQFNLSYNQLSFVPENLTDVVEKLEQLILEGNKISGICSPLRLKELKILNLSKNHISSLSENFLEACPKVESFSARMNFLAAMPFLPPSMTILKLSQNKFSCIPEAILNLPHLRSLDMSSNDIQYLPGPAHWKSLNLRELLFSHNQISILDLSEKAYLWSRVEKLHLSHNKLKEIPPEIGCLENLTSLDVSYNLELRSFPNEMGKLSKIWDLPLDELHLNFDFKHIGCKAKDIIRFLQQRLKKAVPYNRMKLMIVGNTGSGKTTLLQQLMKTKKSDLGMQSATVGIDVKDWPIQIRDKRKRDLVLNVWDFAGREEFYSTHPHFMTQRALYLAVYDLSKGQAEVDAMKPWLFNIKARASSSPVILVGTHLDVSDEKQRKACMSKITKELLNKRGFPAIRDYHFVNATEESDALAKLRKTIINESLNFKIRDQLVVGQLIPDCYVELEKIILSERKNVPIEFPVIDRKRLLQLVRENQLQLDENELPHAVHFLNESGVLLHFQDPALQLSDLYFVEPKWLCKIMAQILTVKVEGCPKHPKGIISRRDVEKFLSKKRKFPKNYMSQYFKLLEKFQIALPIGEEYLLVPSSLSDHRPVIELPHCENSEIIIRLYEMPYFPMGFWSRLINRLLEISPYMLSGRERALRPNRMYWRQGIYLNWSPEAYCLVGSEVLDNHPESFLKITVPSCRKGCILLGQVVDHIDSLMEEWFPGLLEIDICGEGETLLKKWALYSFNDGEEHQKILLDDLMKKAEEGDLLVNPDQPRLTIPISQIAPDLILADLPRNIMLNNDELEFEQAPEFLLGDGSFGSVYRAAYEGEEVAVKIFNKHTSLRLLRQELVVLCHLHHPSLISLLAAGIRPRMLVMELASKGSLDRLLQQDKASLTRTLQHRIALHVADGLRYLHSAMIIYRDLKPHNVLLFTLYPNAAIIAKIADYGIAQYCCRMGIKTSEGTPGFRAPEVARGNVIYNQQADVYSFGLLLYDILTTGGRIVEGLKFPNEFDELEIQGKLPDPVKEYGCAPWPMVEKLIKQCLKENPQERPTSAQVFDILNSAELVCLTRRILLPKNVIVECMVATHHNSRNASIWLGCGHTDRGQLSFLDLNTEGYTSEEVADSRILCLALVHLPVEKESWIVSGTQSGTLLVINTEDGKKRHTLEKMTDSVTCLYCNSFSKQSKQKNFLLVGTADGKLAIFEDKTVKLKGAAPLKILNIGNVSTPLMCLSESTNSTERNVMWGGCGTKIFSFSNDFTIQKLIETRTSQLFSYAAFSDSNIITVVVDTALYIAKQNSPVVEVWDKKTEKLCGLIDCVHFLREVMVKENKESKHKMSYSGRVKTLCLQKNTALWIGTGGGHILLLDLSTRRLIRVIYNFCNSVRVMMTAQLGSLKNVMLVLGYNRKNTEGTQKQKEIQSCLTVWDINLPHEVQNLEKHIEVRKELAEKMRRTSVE
Chain of PRKCQ (human), Q04759 [P330L] (Q04759 whole entry P330L, looked up): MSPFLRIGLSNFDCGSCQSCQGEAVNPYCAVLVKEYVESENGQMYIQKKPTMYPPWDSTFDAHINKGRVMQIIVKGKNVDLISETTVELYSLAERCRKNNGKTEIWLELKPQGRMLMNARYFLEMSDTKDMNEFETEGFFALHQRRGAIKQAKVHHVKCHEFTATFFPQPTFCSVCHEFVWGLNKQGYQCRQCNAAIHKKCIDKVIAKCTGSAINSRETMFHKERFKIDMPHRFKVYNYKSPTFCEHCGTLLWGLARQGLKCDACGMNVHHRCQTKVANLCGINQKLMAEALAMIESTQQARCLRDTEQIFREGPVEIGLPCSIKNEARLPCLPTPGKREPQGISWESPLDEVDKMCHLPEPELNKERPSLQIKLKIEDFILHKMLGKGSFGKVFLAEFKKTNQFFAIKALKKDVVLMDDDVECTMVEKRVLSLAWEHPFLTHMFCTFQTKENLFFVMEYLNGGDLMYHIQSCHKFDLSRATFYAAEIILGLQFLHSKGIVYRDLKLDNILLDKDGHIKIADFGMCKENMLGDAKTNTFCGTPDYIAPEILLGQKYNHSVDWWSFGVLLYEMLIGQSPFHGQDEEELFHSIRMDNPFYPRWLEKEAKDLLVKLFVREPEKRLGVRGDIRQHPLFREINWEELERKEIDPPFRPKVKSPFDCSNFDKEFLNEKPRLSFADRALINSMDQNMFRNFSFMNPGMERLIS

For `COc1cc(Nc2c(C#N)cnc3cc(OCCCN4CCN(C)CC4)c(OC)cc23)c(Cl)cc1Cl`, the residual activity (MAPKAPK3 (human)) was 98.2%, the residual activity (ACVR1 (human)) was 93.3% and the residual activity (NEK4 (human)) was 32.6%. It also gave a residual activity (GRK7 (human)) of 101%, a residual activity (NUAK1 (human)) of 11.4% and a residual activity (ERBB4 (human)) of 1.53%. The residual activity (NEK6 (human)) was 85.3%, the residual activity (CSF1R (human)) was 43.1% and the residual activity (GSK3B (human)) was 99.9%. It also gave a residual activity (NEK3 (human)) of 85.9%, a residual activity (MAP4K2 (human)) of 3.16% and a residual activity (PDGFRA (human)) of 86.9%. It also gave a residual activity (PRKCB1 (human)) of 99.8%, a residual activity (TTK (human)) of 110% and a residual activity (PRKCA (human)) of 49.5%. For the same compound, the residual activity (PRKCZ (human)) was 89.7%, the residual activity (PRKG2 (human)) was 109% and the residual activity (DYRK1B (human)) was 97%. It also gave a residual activity (CDK6 CCND1 (human)) of 99.4%, a residual activity (CDK9 CCNK (human)) of 102% and a residual activity (LRRK2 (human)) of 30.1%. It also gave a residual activity (MAP3K5 (human)) of 95.7%, a residual activity (CDK3 CCNE1 (human)) of 91.9% and a residual activity (FGFR4 (human)) of 94.1%. The residual activity (CHEK2 (human)) was 21.7%, the residual activity (PHKG2 (human)) was 103% and the residual activity (ADRBK1 (human)) was 97.3%. It also gave a residual activity (DYRK4 (human)) of 97.9%, a residual activity (NEK7 (human)) of 94.6% and a residual activity (SRMS (human)) of 90.6%. It also gave a residual activity [1] of 71.5%, a residual activity (WNK3 (human)) of 91.8% and a residual activity (TBK1 (human)) of 65.7%. It also gave a residual activity (MAP3K9 (human)) of 16.5%, a residual activity (PTK6 (human)) of 93.1% and a residual activity (EPHA8 (human)) of 10.5%. The residual activity (ADRBK2 (human)) was 99.2%, the residual activity (PLK1 (human)) was 93.8% and the residual activity (CDK2 CCNE1 (human)) was 98.3%. The residual activity (TGFBR1 (human)) was 99% and the residual activity (CAMK2G (human)) was 131%.

Compound `COc1ccc(Cl)cc1NC(=O)Nc1cc(C)nc2ccccc12` has a residual activity (MAPKAPK3 (human)) of 101%, a residual activity (ACVR1 (human)) of 76.2% and a residual activity (NEK4 (human)) of 92%. The residual activity (GRK7 (human)) was 101%, the residual activity (ERBB4 (human)) was 97.8% and the residual activity (NEK6 (human)) was 97.8%. The residual activity (CSF1R (human)) was 94.8%, the residual activity (GSK3B (human)) was 91.6% and the residual activity (NEK3 (human)) was 114%. For the same compound, the residual activity (MAP4K2 (human)) was 114%, the residual activity (PDGFRA (human)) was 88.5% and the residual activity (MAPK10 (human)) was 86%. It also gave a residual activity (PRKCB1 (human)) of 105%, a residual activity (TTK (human)) of 103% and a residual activity (PRKCA (human)) of 132%. It also gave a residual activity (PRKCZ (human)) of 99.4%, a residual activity (PRKG2 (human)) of 105% and a residual activity (DYRK1B (human)) of 99.7%. For the same compound, the residual activity (CDK6 CCND1 (human)) was 89.8%, the residual activity (CDK9 CCNK (human)) was 95.9% and the residual activity (LRRK2 (human)) was 98%. The residual activity (MAP3K5 (human)) was 101%, the residual activity (CDK3 CCNE1 (human)) was 93.6% and the residual activity (FGFR4 (human)) was 102%. It also gave a residual activity (CHEK2 (human)) of 101%, a residual activity (PHKG2 (human)) of 98.6% and a residual activity (ADRBK1 (human)) of 100%. For the same compound, the residual activity (DYRK4 (human)) was 98.9%, the residual activity (NEK7 (human)) was 103% and the residual activity (SRMS (human)) was 97.6%. It also gave a residual activity [1] of 96.7%, a residual activity (WNK3 (human)) of 99.9% and a residual activity (TBK1 (human)) of 100%. For the same compound, the residual activity (MAP3K9 (human)) was 98.6%, the residual activity (PTK6 (human)) was 101% and the residual activity (EPHA8 (human)) was 97.8%. It also gave a residual activity (ADRBK2 (human)) of 103%, a residual activity (PLK1 (human)) of 96.9% and a residual activity (CDK2 CCNE1 (human)) of 94.6%. The residual activity (TGFBR1 (human)) was 99.1% and the residual activity (CAMK2G (human)) was 91.6%.

With `N#C/C(=C\c1ccc(O)c(O)c1)C(=O)NCc1ccccc1` the residual activity (MAPKAPK3 (human)) was 102%, the residual activity (ACVR1 (human)) was 91.3% and the residual activity (NEK4 (human)) was 98.6%. For the same compound, the residual activity (GRK7 (human)) was 103%, the residual activity (NUAK1 (human)) was 90% and the residual activity (ERBB4 (human)) was 80.9%. For the same compound, the residual activity (NEK6 (human)) was 104%, the residual activity (CSF1R (human)) was 100% and the residual activity (GSK3B (human)) was 106%. For the same compound, the residual activity (NEK3 (human)) was 95.1%, the residual activity (MAP4K2 (human)) was 103% and the residual activity (PDGFRA (human)) was 110%. It also gave a residual activity (MAPK10 (human)) of 98%, a residual activity (PRKCB1 (human)) of 91% and a residual activity (TTK (human)) of 103%. The residual activity (PRKCA (human)) was 99.1%, the residual activity (PRKCZ (human)) was 104% and the residual activity (PRKG2 (human)) was 98.6%. It also gave a residual activity (DYRK1B (human)) of 106%, a residual activity (CDK6 CCND1 (human)) of 95.6% and a residual activity (CDK9 CCNK (human)) of 102%. For the same compound, the residual activity (LRRK2 (human)) was 101%, the residual activity (MAP3K5 (human)) was 104% and the residual activity (FGFR4 (human)) was 84.2%. For the same compound, the residual activity (CHEK2 (human)) was 97.5%, the residual activity (PHKG2 (human)) was 96% and the residual activity (ADRBK1 (human)) was 96.6%. It also gave a residual activity (DYRK4 (human)) of 106%, a residual activity (NEK7 (human)) of 111% and a residual activity (SRMS (human)) of 104%. For the same compound, the residual activity [1] was 103%, the residual activity (WNK3 (human)) was 95% and the residual activity (TBK1 (human)) was 98.3%. The residual activity (MAP3K9 (human)) was 95.5%, the residual activity (PTK6 (human)) was 86.7% and the residual activity (EPHA8 (human)) was 92%. The residual activity (ADRBK2 (human)) was 91.4%, the residual activity (PLK1 (human)) was 97.3% and the residual activity (CDK2 CCNE1 (human)) was 96.4%. It also gave a residual activity (TGFBR1 (human)) of 97.6% and a residual activity (CAMK2G (human)) of 94.1%.

Source: the kinase profiling compilation of Christmann-Franck et al. (2016)
